Where a SMILES comes first, the peptide text is derived from it.
Experiments:
CFU-S = assay: Spleen colony formation from RAMBS-treated bone marrow in lethally irradiated mice; type: in vivo, (CBA×C57BL)F1 female mice; settings: RAMBS-treated bone marrow + preparation, lethally irradiated mice
Text: (CBA×C57BL)F1 female mice (n=2500), 2-months old, weighing about 20 g, were used in the experiment.
As is known, there is a close relationship between T-cells and hemopoietic progenitors. It was shown that, along with colony-forming units of spleen (CFU-S), thymocytes participate in colony formation of spleens of irradiated mice by controlling proliferation of the hemopoietic progenitor cells. The fact was established in a test system, which allowed a selective removal of accessory T-cells from bone marrow with the help of rabbit antimouse brain antiserum (RAMBS) and their substitution with other factors. Aliquots (0.1 ml) of bone marrow suspension (2×10^7 cells), RAMBS, and medium 199 were mixed and incubated for 1 hour at 37° C. Then the cells were washed with centrifuging, resuspended and injected to lethally irradiated mice.
According to the aforesaid scheme, instead of thymocytes mice received the peptide, H-Ile-Glu-Trp-OH injections 30 minutes before the injections of RAMBS-treated bone marrow suspension.

CFU-S-8 and CFU-S-12 = assay: Cytostatic (Cytosine-Arabinoside)-induced cytopenia: karyocytes, CFU-S-8, CFU-S-12 in bone marrow; type: in vivo, mice; settings: donor bone marrow; CA 20 mg/kg i.p. once; N 10 μg/kg once daily, three injections
Protocol: Used as a cytostatic, Cytosine-Arabinoside (CA) was intraperitoneally injected to donor mice once in the dose of 20 mg/kg. The peptide was given according to the following scheme: 10 μg/kg once daily, three injections starting from the first hour after CA. Intact mice received H-Ile-Glu-Trp-OH in the same doses and according to the same schedule. On day 8 after the cytostatic injection, determined were karyocyte count in the donor bone marrow and the content of hemopoietic progenitors of different polipotencies: committed CFU-S-8 and CFU-S-12. CFU-8 are committed stem cells which later undergo differentiation. CFU-12 are the polypotent cells, from which stem cells can be recruited (i.e. they maintain the pool of stem cells). This is a slowly proliferating cell population, mainly in G phase. That is why it is important to evaluate the effect of a preparation on the pools of both committed (CFU-8) and polypotent (CFU- 12) cells. To this end, bone marrow was extracted from donor's femoral bones and injected to lethally irradiated recipients. After the cell injections, every test group was divided into 2 subgroups: some animals were killed on day 8, the other on day 12. Spleens were taken out and the colonies were counted. The tests were carried out on 105 mice.

Thymoma EL-4 cells = Thymoma EL-4 cells incubated with peptide and oxyurea, transplanted to mice: tumor growth and survival; type: in vivo, C57B1 mice
Protocol: The Thymoma EL-4 cells were extracted from the abdomen cavity of C57B1 mice at the 7th day after transplantation. The suspension was washed by centrifugation in the medium RPMI. Then the cells were resuspended in the growth medium (RPMI+10% of embryo serum+0.1% penicillin/streptomycin) and were split in culture flasks 5 ml each ([…] per flask). 2 mg of the preparation were added (20 μl) to each probe. After 18 hours of incubation (37 degrees Celsius CO2), OU was added to the half of probes (1 mg per 5 ml). Incubation was done for 1 more hour in the same conditions and then cells were washed out by centrifugation in the medium RPMI. The precipitated cells were resuspended in calculation 1 ml per 0.2 ml of RPMI medium and then transplanted to the mice C57B1 under the back skin.
The taking of the measurements of the size of the tumor was started after the knot became visible. The tumor was measured every day until it was impossible to measure. The survival ability of the mice was examined during 60 days after transplantation. Mice that survived after this period were considered to be cured. Each experimental group consisted of 6 animals.

[1] = 60 days after transplantation of treated EL-4 cells

N[C@@H](CCC(=O)O)C(=O)N[C@@H](Cc1c[nH]c2ccccc12)C(=O)O [Thymogen, H-Glu-Trp-OH, reference compound] (H-Glu-Trp-OH)
Average Colony Count (CFU-S): 2.9+/-0.3

Nc1ccn([C@@H]2O[C@H](CO)[C@@H](O)[C@@H]2O)c(=O)n1 [CA, Cytosine-Arabinoside, reference compound]
Day 8 COUNT CFU-S-8 (CFU-S-8 and CFU-S-12): 1270 ± 53 | Day 8 COUNT CFU-S-12 (CFU-S-8 and CFU-S-12): 1244 ± 71 | Day 8 COUNT Karyocytes (CFU-S-8 and CFU-S-12): 17.5 ± 0.8 × 10^6

NC(=O)NO [OU, oxyurea, reference compound]
% of Survival (Thymoma EL-4 cells; [1]): 0% | Number of Survived Mice From 6 (Thymoma EL-4 cells; [1]): 0/6 | delay in the tumor growth (Thymoma EL-4 cells; intact tumor cells treated with OU (FIG. 3)): ~12 days | increase in lifetime versus control (Thymoma EL-4 cells; mice with Thymoma EL-4): 5 days
